Source: ChEMBL document CHEMBL3991946, “Linked Myc-max small molecule inhibitors” (2014)
pIC50, pKd: −log10 of the molar value. Activity calls are given as the source filed them. No cut-off for these calls is given here.

Columns and labels:
[1] = molecular target: T1, Myc proto-oncogene protein (Homo sapiens, UniProt P01106); assay: Binding affinity to recombinant full-length N-terminal hexahistidine-tagged c-Myc (353 to 437 residues) bHLH-ZIP domain (unknown origin) expressed in Escherichia coli BL21 DE3 (pLysS) by fluorescence polarization assay
Daudi = assay: Cytotoxicity against human Daudi Burkitt lymphoma cells expressing c-Myc assessed as growth inhibition after 4 to 5 days by MTT assay; assay type: functional, cell-based
HL-60 = assay: Cytotoxicity against human HL60 cells expressing c-Myc assessed as growth inhibition after 4 to 5 days by MTT assay; assay type: functional, cell-based
c-Myc/Max (Homo sapiens) [2] = molecular target: T2, c-Myc/Max (Homo sapiens) (UniProt P01106+P61244); assay: (§1) Inhibition of recombinant full-length N-terminal hexahistidine-tagged c-Myc (353 to 437 residues) bHLH-ZIP domain (unknown origin) expressed in Escherichia coli BL21 DE3 (pLysS)/human hexahistidine-tagged Max p21 expressed in Escherichia coli M15 (pRep4) assessed as disruption of E-Box DNA binding at 25 to 50 nM preincubated for 30 mins with c-Myc followed by Max p21 and E-box element measured after 15 mins by electrophoretic mobility shift assay
[3] = molecular target: T1, Myc proto-oncogene protein; assay: Binding affinity to recombinant full-length N-terminal hexahistidine-tagged c-Myc (353 to 437 residues) bHLH-ZIP domain (unknown origin) expressed in Escherichia coli BL21 DE3 (pLysS) assessed as changes in COSY spectra in alpha1H region at 500 uM by NMR spectroscopy
[4] = Cytotoxicity against non-transformed rat TGR1 assessed as growth inhibition after 4 to 5 days by MTT assay; assay type: cell-based
[5] = Cytotoxicity against c-Myc null rat TGR1 reconstituted with HMGA1b or MT-MC1 assessed as growth inhibition after 4 to 5 days by MTT assay; assay type: cell-based
[6] = molecular target: T1, Myc proto-oncogene protein; assay: Binding affinity to recombinant full-length N-terminal hexahistidine-tagged c-Myc (353 to 437 residues) bHLH-ZIP domain (unknown origin) expressed in Escherichia coli BL21 DE3 (pLysS) assessed as changes in alpha1H signals of Tyr 402 residues at 500 uM by NMR spectroscopy
[7] = Metabolic stability of the compound
[8] = molecular target: T3, c-Myc/c-Max (Homo sapiens) (UniProt P01106+P61244); assay: Inhibition of recombinant c-Myc/Max (unknown origin) expressed in human HL60 cells assessed as disruption of c-Myc/Max association after 6 hrs by co-immunoprecipitation assay; assay type: cell-based
[9] = molecular target: T3, c-Myc/c-Max (Homo sapiens); assay: Inhibition of recombinant c-Myc/Max (unknown origin) expressed in human HL60 cells assessed as disruption of c-Myc/Max association after 16 hrs by co-immunoprecipitation assay; assay type: cell-based
[10] = molecular target: T1, Myc proto-oncogene protein; assay: Binding affinity to recombinant full-length N-terminal hexahistidine-tagged c-Myc (353 to 437 residues) bHLH-ZIP domain (unknown origin) expressed in Escherichia coli BL21 DE3 (pLysS) assessed as changes in shape or intensity of CD spectrum at 5 uM by circular dichroism assay
c-Myc/Max (Homo sapiens) [11] = molecular target: T2, c-Myc/Max (Homo sapiens); assay: as §1, with “binding” for “binding at 25 to 50 nM”, “element addition” for “element”
[12] = molecular target: Protein max (Homo sapiens) (UniProt P61244); assay: Binding affinity to human hexahistidine-tagged Max p21 bHLH-ZIP domain expressed in Escherichia coli M15 (pRep4) at 10 uM by fluorescence polarization assay
[13] = molecular target: T1, Myc proto-oncogene protein; assay: Displacement of 10058-F4 from recombinant full-length N-terminal hexahistidine-tagged c-Myc (353 to 437 residues) bHLH-ZIP domain (unknown origin) expressed in Escherichia coli BL21 DE3 (pLysS) by fluorescence polarization assay
[14] = molecular target: T1, Myc proto-oncogene protein; assay: Binding affinity to recombinant full-length N-terminal hexahistidine-tagged c-Myc (353 to 437 residues) bHLH-ZIP domain (unknown origin) expressed in Escherichia coli BL21 DE3 (pLysS) assessed as changes in NOESY spectra at 500 uM by NMR spectroscopy
[15] = molecular target: T1, Myc proto-oncogene protein; assay: Binding affinity to recombinant full-length N-terminal hexahistidine-tagged c-Myc (353 to 437 residues) bHLH-ZIP domain (unknown origin) expressed in Escherichia coli BL21 DE3 (pLysS) assessed as changes in alpha1H signals of Phe 374 to 375 and Tyr 402 residues at 500 uM by NMR spectroscopy
[16] = molecular target: T1, Myc proto-oncogene protein; assay: Binding affinity to recombinant truncated N-terminal hexahistidine-tagged c-Myc (400 to 439 residues) bHLH-ZIP domain (unknown origin) expressed in Escherichia coli BL21 DE3 (pLysS) by fluorescence polarization assay
[17] = molecular target: T1, Myc proto-oncogene protein; assay: Binding affinity to recombinant truncated N-terminal hexahistidine-tagged c-Myc (363 to 381 residues) bHLH-ZIP domain (unknown origin) expressed in Escherichia coli BL21 DE3 (pLysS) by fluorescence polarization assay

Protein max (Homo sapiens), sequence (P61244 whole entry, the tested form may be a part): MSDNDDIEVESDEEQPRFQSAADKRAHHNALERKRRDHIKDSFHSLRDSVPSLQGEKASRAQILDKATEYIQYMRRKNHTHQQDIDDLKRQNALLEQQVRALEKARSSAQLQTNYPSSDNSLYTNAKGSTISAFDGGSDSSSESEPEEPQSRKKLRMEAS
T3 sequence (P01106 whole entry): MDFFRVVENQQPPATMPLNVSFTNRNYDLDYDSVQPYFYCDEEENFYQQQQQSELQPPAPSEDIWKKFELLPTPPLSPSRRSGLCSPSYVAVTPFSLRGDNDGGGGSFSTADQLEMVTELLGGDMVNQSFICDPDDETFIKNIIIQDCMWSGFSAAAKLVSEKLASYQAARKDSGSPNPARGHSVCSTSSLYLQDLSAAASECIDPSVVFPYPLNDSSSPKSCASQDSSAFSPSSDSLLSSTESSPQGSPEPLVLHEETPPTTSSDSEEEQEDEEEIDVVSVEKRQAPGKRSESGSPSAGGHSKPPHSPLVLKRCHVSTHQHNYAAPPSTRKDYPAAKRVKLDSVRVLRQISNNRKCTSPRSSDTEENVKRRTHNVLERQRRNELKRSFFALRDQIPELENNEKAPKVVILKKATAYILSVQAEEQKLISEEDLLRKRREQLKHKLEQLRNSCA
T3 sequence (P61244 2-160 partner limits assumed): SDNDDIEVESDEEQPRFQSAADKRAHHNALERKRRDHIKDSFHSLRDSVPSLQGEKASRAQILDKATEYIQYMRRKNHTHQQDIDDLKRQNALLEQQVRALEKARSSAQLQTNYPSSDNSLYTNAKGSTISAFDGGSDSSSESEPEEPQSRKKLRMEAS
T1 sequence (P01106 whole entry, the tested form may be a part): as the sequence (P01106 whole entry) above

| SMILES | pKd [1] | pIC50 (Daudi) | pIC50 (HL-60) | growth inhibition (GI) [4] | growth inhibition (GI) [5] | also measured |
| --- | --- | --- | --- | --- | --- | --- |
| O=C1NC(=S)S/C1=C\c1ccc(C(=O)O)cc1 | 4.59 |  |  |  |  |  |
| O=C(NCCCCCCN1C(=O)S/C(=C\c2ccc(F)cc2)C1=O)c1ccccc1Nc1ccc([N+](=O)[O-])c2nonc12 | 8.34 | 5.10 to 5.22 | 5.46 to 5.52 |  |  |  |
| O=[N+]([O-])c1ccc(Nc2ccccc2-c2ccccc2)c2nonc12 |  |  |  | Non-Toxic | Non-Toxic | inhibition (c-Myc/Max (Homo sapiens) [2]): Active; inhibition [3]: Active |
| CCc1ccc(/C=C2\SC(=S)NC2=O)cc1 |  |  |  | Non-Toxic | Non-Toxic | inhibition (c-Myc/Max (Homo sapiens) [2]): Active; inhibition [6]: Active; inhibition [3]: Active |
| O=C(NCCCCCN1C(=O)S/C(=C\c2ccc(F)cc2)C1=O)c1ccccc1Nc1ccc([N+](=O)[O-])c2nonc12 | 7.96 | 5.92 to 6.00 | 5.77 to 5.82 |  |  | Stability [7]: Unstable; inhibition [8]: Dose-dependent effect; inhibition [9]: inactive |
| CCc1ccc(/C=C2\SC(=O)N(CCCCNC(=O)c3ccc(Nc4ccc([N+](=O)[O-])c5nonc45)cc3)C2=O)cc1 |  |  |  | Non-Toxic | Non-Toxic | Stability [7]: Unstable |
| O=C1NC(=S)S/C1=C/c1ccc(C(=O)NCCCCCNC(=O)c2ccc(Nc3ccc([N+](=O)[O-])c4nonc34)cc2)cc1 |  |  |  | Non-Toxic | Non-Toxic | Activity [10]: inactive; inhibition (c-Myc/Max (Homo sapiens) [11]): Active; Activity [12]: inactive |
| CC(=O)NCCCCCOC(=O)c1ccc(Nc2ccc([N+](=O)[O-])c3nonc23)cc1 | 5.77 |  |  |  |  |  |
| O=C(CNC(=O)c1ccc(Nc2ccc([N+](=O)[O-])c3nonc23)cc1)NCCCCCNC(=O)c1ccc(/C=C2\SC(=S)NC2=O)cc1 | 6.49 | 4.96 to 5.15 | 4.89 to 5.15 | Non-Toxic | Non-Toxic |  |
| CCc1ccc(/C=C2\SC(=O)N(CCCCCCNC(C)=O)C2=O)cc1 | 5.15 |  |  |  |  | Activity [13]: Active |
| O=C(CCCCCNC(=O)c1ccc(Nc2ccc([N+](=O)[O-])c3nonc23)cc1)NCCCCCNC(=O)c1ccc(/C=C2\SC(=S)NC2=O)cc1 | 7.26 |  |  |  |  |  |
| CCc1ccc(/C=C2\SC(=O)N(CCCCCNC(=O)c3cccc(Nc4ccc([N+](=O)[O-])c5nonc45)c3)C2=O)cc1 | 6.96 | < 5.00 | < 4.52 | Non-Toxic | Non-Toxic | Activity [10]: inactive; inhibition (c-Myc/Max (Homo sapiens) [11]): Active; Activity [12]: inactive |
| O=C(NCCCCCCN1C(=O)S/C(=C\c2ccc(F)cc2)C1=O)c1ccc(Nc2ccc([N+](=O)[O-])c3nonc23)cc1 | 8.77 | 5.92 | 5.40 to 5.52 |  |  | Stability [7]: Unstable; inhibition [8]: Dose-dependent effect; inhibition [9]: inactive |
| CCc1ccc(/C=C2\SC(=O)N(CCCCCNC(=O)c3ccc(Nc4ccc([N+](=O)[O-])c5nonc45)cc3)C2=O)cc1 | 9.22 | 5.40 to 5.70 | 5.05 to 5.15 | Non-Toxic | Non-Toxic | Activity [10]: inactive; Activity [14]: Active; inhibition (c-Myc/Max (Homo sapiens) [11]): Active; Activity [12]: inactive; inhibition [3]: Active; inhibition [15]: Active |
| O=C1NC(=S)S/C1=C\c1ccc(C(=O)NCCCCCNC(=O)c2cccc(Nc3ccc([N+](=O)[O-])c4nonc34)c2)cc1 |  |  |  | Non-Toxic | Non-Toxic | Activity [10]: inactive; inhibition (c-Myc/Max (Homo sapiens) [11]): Active; Activity [12]: inactive |
| O=C1NC(=S)S/C1=C\c1ccc(C(=O)NCCCCCNC(=O)c2ccccc2Nc2ccc([N+](=O)[O-])c3nonc23)cc1 | 7.62 |  | < 5.00 | Non-Toxic | Non-Toxic | Activity [10]: inactive; inhibition (c-Myc/Max (Homo sapiens) [11]): Active; pKd [16]: 6.91; Activity [12]: inactive; pKd [17]: 8.00 |
| O=C(NCCCCCN1C(=O)S/C(=C\c2ccc(F)cc2)C1=O)c1ccc(Nc2ccc([N+](=O)[O-])c3nonc23)cc1 | 8.44 | 5.15 to 5.22 | 5.00 to 5.22 |  |  |  |
| CCc1ccc(/C=C2\SC(=O)N(CCCCCNC(=O)CCCCCNC(=O)c3ccc(Nc4ccc([N+](=O)[O-])c5nonc45)cc3)C2=O)cc1 | 8.30 |  |  |  |  |  |
| CCc1ccc(/C=C2\SC(=O)N(CCCCCNC(=O)CNC(=O)c3ccc(Nc4ccc([N+](=O)[O-])c5nonc45)cc3)C2=O)cc1 | 8.44 | 5.22 to 5.40 | 5.40 to 5.70 | Non-Toxic | Non-Toxic |  |
| CCc1ccc(/C=C2\SC(=O)N(CCCCNC(=O)c3ccccc3Nc3ccc([N+](=O)[O-])c4nonc34)C2=O)cc1 | 8.52 | 5.60 to 5.70 | 5.22 to 5.70 |  |  | Stability [7]: Unstable; inhibition [8]: Dose-dependent effect; inhibition [9]: inactive |
